Data published in US12227500B2, “Substituted pyrrolo[2,3-b]pyridines for suppressing toxic endoplasmic reticulum stress” (THE TRUSTEES OF COLUMBIA UNIVERSITY IN THE CITY OF NEW YORK, priority 2018, dated 2025).

Key:
Experiment in all cases: Radiolabeled ATP kinase assay, panel of 371 kinases (Table S6)
Format in all cases: biochemical
[1] = target: T1, panel of 371 human kinases (Homo sapiens, UniProt Q9HBH9); conditions: MNK2; 0.1 μM; 10 μM ATP; read-out: % Enzyme Activity (relative to DMSO controls)
T1 construct: purchased Reaction Biology Corp
Excerpt: (§1) ; FIG. 38C). […]. Further targeted analyses, such as genetic knock-down or knock-out, may be warranted to parse the role of these additional kinases in our model of neurodegeneration.

[2] = target: T2, panel of 371 human kinases (Homo sapiens, UniProt P45985); conditions: MKK4; 0.1 μM; 10 μM ATP; read-out: % Enzyme Activity (relative to DMSO controls)
T2 construct: purchased Reaction Biology Corp
Excerpt: as §1

[3] = target: T3, panel of 371 human kinases (Homo sapiens, UniProt P06239); conditions: LCK; 0.1 μM; 10 μM ATP; read-out: % Enzyme Activity (relative to DMSO controls)
T3 construct: purchased Reaction Biology Corp
Excerpt: as §1

[4] = target: T4, panel of 371 human kinases (Homo sapiens, UniProt Q13464); conditions: ROCK1; 0.1 μM; 10 μM ATP; read-out: % Enzyme Activity (relative to DMSO controls)
T4 construct: purchased Reaction Biology Corp
Excerpt: as §1

[5] = target: T5, panel of 371 human kinases (Homo sapiens, UniProt Q9H422); conditions: HIPK3; 0.1 μM; 10 μM ATP; read-out: % Enzyme Activity (relative to DMSO controls)
T5 construct: purchased Reaction Biology Corp
Excerpt: as §1

[6] = target: T6, panel of 371 human kinases (Homo sapiens, UniProt O15075); conditions: DCAMKL1; 0.1 μM; 10 μM ATP; read-out: % Enzyme Activity (relative to DMSO controls)
T6 construct: purchased Reaction Biology Corp
Excerpt: as §1

[7] = target: T7, panel of 371 human kinases (Homo sapiens, UniProt P43403); conditions: ZAP70; 0.1 μM; 10 μM ATP; read-out: % Enzyme Activity (relative to DMSO controls)
T7 construct: purchased Reaction Biology Corp
Excerpt: as §1

[8] = target: T8, panel of 371 human kinases (Homo sapiens, UniProt Q16539); conditions: P38a/MAPK14; 0.1 μM; 10 μM ATP; read-out: % Enzyme Activity (relative to DMSO controls)
T8 construct: purchased Reaction Biology Corp
Excerpt: as §1

[9] = target: T9, panel of 371 human kinases (Homo sapiens, UniProt P20794); conditions: MAK; 0.1 μM; 10 μM ATP; read-out: % Enzyme Activity (relative to DMSO controls)
T9 construct: purchased Reaction Biology Corp
Excerpt: as §1

[10] = target: T10, panel of 371 human kinases (Homo sapiens, UniProt P04049); conditions: RAF1; 0.1 μM; 10 μM ATP; read-out: % Enzyme Activity (relative to DMSO controls)
T10 construct: purchased Reaction Biology Corp
Excerpt: as §1

[11] = target: T11, panel of 371 human kinases (Homo sapiens, UniProt Q8IW41); conditions: MAPKAPK5/PRAK; 0.1 μM; 10 μM ATP; read-out: % Enzyme Activity (relative to DMSO controls)
T11 construct: purchased Reaction Biology Corp
Excerpt: as §1

[12] = target: T12, panel of 371 human kinases (Homo sapiens, UniProt Q7KZI7); conditions: MARK2/PAR-1Ba; 0.1 μM; 10 μM ATP; read-out: % Enzyme Activity (relative to DMSO controls)
T12 construct: purchased Reaction Biology Corp
Excerpt: as §1

[13] = target: T13, panel of 371 human kinases (Homo sapiens, UniProt Q08345); conditions: DDR1; 0.1 μM; 10 μM ATP; read-out: % Enzyme Activity (relative to DMSO controls)
T13 construct: purchased Reaction Biology Corp
Excerpt: as §1

[14] = target: T14, panel of 371 human kinases (Homo sapiens, UniProt O15111); conditions: IKKa/CHUK; 0.1 μM; 10 μM ATP; read-out: % Enzyme Activity (relative to DMSO controls)
T14 construct: purchased Reaction Biology Corp
Excerpt: as §1

[15] = target: T15, panel of 371 human kinases (Homo sapiens, UniProt P45983); conditions: JNK1; 0.1 μM; 10 μM ATP; read-out: % Enzyme Activity (relative to DMSO controls)
T15 construct: purchased Reaction Biology Corp
Excerpt: as §1

[16] = target: T16, panel of 371 human kinases (Homo sapiens, UniProt P22612); conditions: PKAcg; 0.1 μM; 10 μM ATP; read-out: % Enzyme Activity (relative to DMSO controls)
T16 construct: purchased Reaction Biology Corp
Excerpt: as §1

[17] = target: T17, panel of 371 human kinases (Homo sapiens, UniProt P35626); conditions: GRK3; 0.1 μM; 10 μM ATP; read-out: % Enzyme Activity (relative to DMSO controls)
T17 construct: purchased Reaction Biology Corp
Excerpt: as §1

[18] = target: T18, panel of 371 human kinases (Homo sapiens, UniProt Q05513); conditions: PKCzeta; 0.1 μM; 10 μM ATP; read-out: % Enzyme Activity (relative to DMSO controls)
T18 construct: purchased Reaction Biology Corp
Excerpt: as §1

[19] = target: T19, panel of 371 human kinases (Homo sapiens, UniProt Q13873); conditions: BMPR2; 0.1 μM; 10 μM ATP; read-out: % Enzyme Activity (relative to DMSO controls)
T19 construct: purchased Reaction Biology Corp
Excerpt: as §1

[20] = target: T20, panel of 371 human kinases (Homo sapiens, UniProt Q32MK0); conditions: MYLK3; 0.1 μM; 10 μM ATP; read-out: % Enzyme Activity (relative to DMSO controls)
T20 construct: purchased Reaction Biology Corp
Excerpt: as §1

[21] = target: T21, panel of 371 human kinases (Homo sapiens, UniProt Q86YV6); conditions: MYLK4; 0.1 μM; 10 μM ATP; read-out: % Enzyme Activity (relative to DMSO controls)
T21 construct: purchased Reaction Biology Corp
Excerpt: as §1

[22] = target: T22, panel of 371 human kinases (Homo sapiens, UniProt P07947); conditions: YES/YES1; 0.1 μM; 10 μM ATP; read-out: % Enzyme Activity (relative to DMSO controls)
T22 construct: purchased Reaction Biology Corp
Excerpt: as §1

[23] = target: T23, panel of 371 human kinases (Homo sapiens, UniProt Q8TD19); conditions: NEK9; 0.1 μM; 10 μM ATP; read-out: % Enzyme Activity (relative to DMSO controls)
T23 construct: purchased Reaction Biology Corp
Excerpt: as §1

[24] = target: T24, panel of 371 human kinases (Homo sapiens, UniProt Q13233); conditions: MEKK1; 0.1 μM; 10 μM ATP; read-out: % Enzyme Activity (relative to DMSO controls)
T24 construct: purchased Reaction Biology Corp
Excerpt: as §1

T22 sequence (P07947 whole entry): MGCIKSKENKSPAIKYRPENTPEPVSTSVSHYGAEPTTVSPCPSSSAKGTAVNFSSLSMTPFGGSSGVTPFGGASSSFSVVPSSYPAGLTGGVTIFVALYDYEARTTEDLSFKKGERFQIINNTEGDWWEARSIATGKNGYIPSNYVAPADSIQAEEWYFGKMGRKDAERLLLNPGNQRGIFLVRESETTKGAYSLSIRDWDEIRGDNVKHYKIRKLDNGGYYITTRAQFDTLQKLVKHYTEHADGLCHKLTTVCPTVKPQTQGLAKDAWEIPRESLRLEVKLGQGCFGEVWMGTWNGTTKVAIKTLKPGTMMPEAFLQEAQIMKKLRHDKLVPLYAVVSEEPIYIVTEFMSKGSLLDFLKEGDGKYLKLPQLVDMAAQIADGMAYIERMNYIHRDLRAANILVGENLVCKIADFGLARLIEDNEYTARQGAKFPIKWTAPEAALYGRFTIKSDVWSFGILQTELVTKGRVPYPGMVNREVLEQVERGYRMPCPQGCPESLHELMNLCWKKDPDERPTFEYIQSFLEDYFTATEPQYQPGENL
T13 sequence (Q08345 19-913): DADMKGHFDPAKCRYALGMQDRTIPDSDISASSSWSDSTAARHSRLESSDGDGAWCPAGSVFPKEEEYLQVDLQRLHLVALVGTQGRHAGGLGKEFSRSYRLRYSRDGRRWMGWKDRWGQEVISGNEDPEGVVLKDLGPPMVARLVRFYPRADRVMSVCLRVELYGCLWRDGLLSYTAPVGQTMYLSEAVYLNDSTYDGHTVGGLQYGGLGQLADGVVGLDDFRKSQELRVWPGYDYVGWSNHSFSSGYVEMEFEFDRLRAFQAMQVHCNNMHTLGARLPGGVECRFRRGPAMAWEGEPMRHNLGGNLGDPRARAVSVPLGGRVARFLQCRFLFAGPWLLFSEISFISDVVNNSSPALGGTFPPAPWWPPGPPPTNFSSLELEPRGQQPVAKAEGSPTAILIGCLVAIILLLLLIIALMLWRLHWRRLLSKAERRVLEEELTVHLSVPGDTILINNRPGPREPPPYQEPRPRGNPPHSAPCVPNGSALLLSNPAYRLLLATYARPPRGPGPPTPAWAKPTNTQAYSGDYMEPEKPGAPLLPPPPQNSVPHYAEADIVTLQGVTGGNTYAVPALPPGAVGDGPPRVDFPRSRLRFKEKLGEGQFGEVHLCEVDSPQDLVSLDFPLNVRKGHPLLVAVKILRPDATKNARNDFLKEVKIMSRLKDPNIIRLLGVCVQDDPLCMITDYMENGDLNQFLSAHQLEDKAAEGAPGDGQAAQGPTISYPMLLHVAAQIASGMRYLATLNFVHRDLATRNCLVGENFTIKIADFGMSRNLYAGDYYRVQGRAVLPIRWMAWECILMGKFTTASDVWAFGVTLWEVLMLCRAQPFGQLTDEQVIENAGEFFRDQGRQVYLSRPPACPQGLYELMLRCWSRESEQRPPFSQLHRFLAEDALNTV
T12 sequence (Q7KZI7 whole entry): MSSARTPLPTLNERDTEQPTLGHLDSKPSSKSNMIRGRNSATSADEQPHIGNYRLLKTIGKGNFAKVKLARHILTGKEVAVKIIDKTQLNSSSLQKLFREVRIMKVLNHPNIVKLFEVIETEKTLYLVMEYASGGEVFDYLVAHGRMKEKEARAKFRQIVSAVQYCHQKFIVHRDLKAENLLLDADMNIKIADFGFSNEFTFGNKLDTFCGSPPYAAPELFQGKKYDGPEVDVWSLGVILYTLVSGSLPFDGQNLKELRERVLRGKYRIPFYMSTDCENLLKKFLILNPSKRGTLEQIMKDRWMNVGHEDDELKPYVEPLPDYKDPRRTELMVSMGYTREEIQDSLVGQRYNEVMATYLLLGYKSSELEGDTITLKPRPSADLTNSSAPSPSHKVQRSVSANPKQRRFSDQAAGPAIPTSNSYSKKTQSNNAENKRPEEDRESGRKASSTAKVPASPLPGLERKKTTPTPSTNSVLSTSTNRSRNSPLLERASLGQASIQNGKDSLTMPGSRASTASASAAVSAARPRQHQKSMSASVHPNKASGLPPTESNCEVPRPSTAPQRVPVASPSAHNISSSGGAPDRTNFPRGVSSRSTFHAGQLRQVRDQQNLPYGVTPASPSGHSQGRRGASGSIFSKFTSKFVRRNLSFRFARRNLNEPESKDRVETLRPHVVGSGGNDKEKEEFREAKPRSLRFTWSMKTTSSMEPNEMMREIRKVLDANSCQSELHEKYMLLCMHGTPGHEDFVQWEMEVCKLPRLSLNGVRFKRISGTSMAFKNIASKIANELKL
T2 sequence (P45985 whole entry): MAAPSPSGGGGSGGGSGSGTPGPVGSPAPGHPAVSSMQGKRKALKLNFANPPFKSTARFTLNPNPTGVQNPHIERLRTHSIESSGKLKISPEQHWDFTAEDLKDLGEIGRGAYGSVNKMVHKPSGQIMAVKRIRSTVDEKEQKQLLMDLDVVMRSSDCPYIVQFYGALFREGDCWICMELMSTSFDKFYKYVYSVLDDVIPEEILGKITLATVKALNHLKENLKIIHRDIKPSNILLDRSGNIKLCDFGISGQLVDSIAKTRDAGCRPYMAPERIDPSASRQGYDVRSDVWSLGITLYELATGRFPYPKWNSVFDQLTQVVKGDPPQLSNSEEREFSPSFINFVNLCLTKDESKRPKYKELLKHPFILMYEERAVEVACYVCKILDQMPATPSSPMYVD
T7 sequence (P43403 whole entry): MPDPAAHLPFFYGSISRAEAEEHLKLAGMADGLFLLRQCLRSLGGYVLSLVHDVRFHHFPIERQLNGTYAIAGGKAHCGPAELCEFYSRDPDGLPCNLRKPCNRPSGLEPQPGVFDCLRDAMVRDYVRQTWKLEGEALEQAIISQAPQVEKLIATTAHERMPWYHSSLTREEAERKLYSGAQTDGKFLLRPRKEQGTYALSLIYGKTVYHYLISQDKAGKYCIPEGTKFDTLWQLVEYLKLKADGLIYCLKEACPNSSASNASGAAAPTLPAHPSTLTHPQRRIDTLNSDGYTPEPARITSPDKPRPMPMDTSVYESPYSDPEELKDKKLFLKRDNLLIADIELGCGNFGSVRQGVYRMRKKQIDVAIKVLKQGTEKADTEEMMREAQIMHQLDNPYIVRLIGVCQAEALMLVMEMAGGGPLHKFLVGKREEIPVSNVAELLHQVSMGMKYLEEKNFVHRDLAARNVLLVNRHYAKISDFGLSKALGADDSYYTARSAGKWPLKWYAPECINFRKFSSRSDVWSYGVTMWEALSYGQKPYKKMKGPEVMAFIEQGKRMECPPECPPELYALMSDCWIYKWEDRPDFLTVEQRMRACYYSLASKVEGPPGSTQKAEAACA
T15 sequence (P45983 whole entry): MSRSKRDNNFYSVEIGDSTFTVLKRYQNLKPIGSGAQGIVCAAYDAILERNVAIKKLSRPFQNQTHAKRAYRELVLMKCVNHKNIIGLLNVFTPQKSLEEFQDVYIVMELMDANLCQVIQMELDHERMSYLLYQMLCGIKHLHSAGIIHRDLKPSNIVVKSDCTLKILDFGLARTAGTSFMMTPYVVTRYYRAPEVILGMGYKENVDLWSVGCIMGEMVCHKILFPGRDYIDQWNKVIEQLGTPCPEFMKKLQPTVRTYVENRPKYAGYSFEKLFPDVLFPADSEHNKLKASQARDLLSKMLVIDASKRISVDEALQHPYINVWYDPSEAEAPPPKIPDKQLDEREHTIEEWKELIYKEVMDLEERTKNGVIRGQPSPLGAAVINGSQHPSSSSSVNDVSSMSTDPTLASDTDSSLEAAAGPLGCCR
T23 sequence (Q8TD19 whole entry): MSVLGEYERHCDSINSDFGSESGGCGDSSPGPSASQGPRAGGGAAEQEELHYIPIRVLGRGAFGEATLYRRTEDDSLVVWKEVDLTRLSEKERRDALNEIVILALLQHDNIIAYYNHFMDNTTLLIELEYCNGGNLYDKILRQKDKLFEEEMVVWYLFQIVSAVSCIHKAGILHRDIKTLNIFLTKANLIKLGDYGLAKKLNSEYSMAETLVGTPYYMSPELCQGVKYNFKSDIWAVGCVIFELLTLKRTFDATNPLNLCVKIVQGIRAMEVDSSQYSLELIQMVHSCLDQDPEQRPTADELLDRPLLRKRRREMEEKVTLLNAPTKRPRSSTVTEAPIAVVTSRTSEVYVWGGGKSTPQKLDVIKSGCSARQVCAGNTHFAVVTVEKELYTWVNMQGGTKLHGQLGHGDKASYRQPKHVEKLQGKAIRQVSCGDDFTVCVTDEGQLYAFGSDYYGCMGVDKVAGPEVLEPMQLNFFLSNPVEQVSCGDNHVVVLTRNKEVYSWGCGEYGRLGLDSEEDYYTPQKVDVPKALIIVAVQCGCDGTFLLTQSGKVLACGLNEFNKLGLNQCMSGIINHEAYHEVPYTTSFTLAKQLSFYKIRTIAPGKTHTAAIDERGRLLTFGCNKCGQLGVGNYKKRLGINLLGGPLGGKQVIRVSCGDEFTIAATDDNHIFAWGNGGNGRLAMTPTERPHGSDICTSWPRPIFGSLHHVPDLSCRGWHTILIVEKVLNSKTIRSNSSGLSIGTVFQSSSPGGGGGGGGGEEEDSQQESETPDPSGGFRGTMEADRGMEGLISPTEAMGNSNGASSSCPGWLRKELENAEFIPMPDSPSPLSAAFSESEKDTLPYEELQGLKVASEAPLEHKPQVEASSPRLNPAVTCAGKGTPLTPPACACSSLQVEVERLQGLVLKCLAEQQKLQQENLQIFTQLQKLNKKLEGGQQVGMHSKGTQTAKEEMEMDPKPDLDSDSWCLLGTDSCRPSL
T21 sequence (Q86YV6 whole entry): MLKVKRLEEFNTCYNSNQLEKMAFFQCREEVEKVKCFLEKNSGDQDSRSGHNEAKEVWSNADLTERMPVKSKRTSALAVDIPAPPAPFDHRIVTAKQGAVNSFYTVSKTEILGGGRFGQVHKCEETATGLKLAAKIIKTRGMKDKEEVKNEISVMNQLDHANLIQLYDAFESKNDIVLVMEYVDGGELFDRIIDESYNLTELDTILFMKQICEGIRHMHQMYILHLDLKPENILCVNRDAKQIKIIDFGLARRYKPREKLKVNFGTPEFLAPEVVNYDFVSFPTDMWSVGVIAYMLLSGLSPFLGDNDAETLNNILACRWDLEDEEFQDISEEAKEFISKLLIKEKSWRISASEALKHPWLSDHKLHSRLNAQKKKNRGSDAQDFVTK

| SMILES | remaining activity at 0.1 µM [1] [%] | remaining activity at 0.1 µM [2] [%] | remaining activity at 0.1 µM [3] [%] | remaining activity at 0.1 µM [4] [%] | remaining activity at 0.1 µM [5] [%] | remaining activity at 0.1 µM [6] [%] | remaining activity at 0.1 µM [7] [%] | remaining activity at 0.1 µM [8] [%] | remaining activity at 0.1 µM [9] [%] | remaining activity at 0.1 µM [10] [%] | remaining activity at 0.1 µM [11] [%] | remaining activity at 0.1 µM [12] [%] | remaining activity at 0.1 µM [13] [%] | remaining activity at 0.1 µM [14] [%] | remaining activity at 0.1 µM [15] [%] | remaining activity at 0.1 µM [16] [%] | remaining activity at 0.1 µM [17] [%] | remaining activity at 0.1 µM [18] [%] | remaining activity at 0.1 µM [19] [%] | remaining activity at 0.1 µM [20] [%] | also measured |
| --- | --- | --- | --- | --- | --- | --- | --- | --- | --- | --- | --- | --- | --- | --- | --- | --- | --- | --- | --- | --- | --- |
| CN1CCN(Cc2ccc(-c3cnc4[nH]cc(-c5ccc6[nH]ccc6c5)c4c3)cc2)CC1 [Compound 1, 3-(1H-Indol-5-yl)-5-(4-((4-methylpiperazin-1-yl)methyl)phenyl)-1H-pyrrolo[2,3-b]pyridine, reference compound] | 97.6 | 105 | 94.2 | 94.7 | 103 | 97.2 | 103 | 105 | 101 | 104 | 78.5 | 78 | 89.9 | 96.8 | 98.2 | 102 | 106 | 93.6 | 90.5 | 109 | remaining activity at 0.1 µM [21]: 53.6%; remaining activity at 0.1 µM [22]: 96.6%; remaining activity at 0.1 µM [23]: 101%; remaining activity at 0.1 µM [24]: 102% |
| OCCN1CCN(Cc2ccc(-c3cnc4[nH]cc(-c5cccc(Cl)c5)c4c3)cc2)CC1 [Compound 12k, 2-(4-(4-(3-(3-Chlorophenyl)-1H-pyrrolo[2,3-b]pyridin-5-yl)benzyl)piperazin-1-yl)ethan-1-ol] | 65.2 | 110 | 98.8 | 79.2 | 113 | 94.2 | 102 | 103 | 87.5 | 105 | 84.4 | 51.7 | 86.6 | 101 | 86.8 | 99.4 | 104 | 97.7 | 90.3 | 96.7 | remaining activity at 0.1 µM [21]: 37.2%; remaining activity at 0.1 µM [22]: 109%; remaining activity at 0.1 µM [23]: 95.1%; remaining activity at 0.1 µM [24]: 94% |
